Consider five molecules from ChEMBL document CHEMBL1124940, “N-[(arylmethoxy)phenyl] carboxylic acids, hydroxamic acids, tetrazoles, and sulfonyl carboxamides. Potent orally active leukotriene D4 antagonists of novel structure” (J Med Chem, 1990).

Data set [1] concerns Cavia porcellus. Description: Tested for the inhibition of LTD4-induced bronchoconstriction in Guinea pig, injected intraduodenally, dose is 10 mg/kg. The class given is functional. As to conditions: route intraduodenal.
For data set [2], the system named is Cavia porcellus. The data set can be described thus: Inhibition of ovalbumin-induced broncho constriction in Guinea pig after intraduodenal administration of a dose of 10 mg/kg. The class given is functional.
The test system of data set [3] is Cavia porcellus. Description: Tested for the inhibition of LTD4-induced bronchoconstriction in Guinea pig, injected intragastrically, dose is 3 mg/kg. The note with it: po, route intragastric. The class given is functional.
Data set [4] deals with Cavia porcellus. The data set can be described thus: Tested for the inhibition of LTD4-induced broncho constriction in Guinea pig, injected intraduodenally at a dose of 25 mg/kg. Type of data set: functional. The note with it: route intraduodenal.
Data set [5] concerns Cavia porcellus. The data set can be described thus: Inhibition of LTD4-induced broncho constriction in Guinea pig after intragastrical administration of a dose of 25 mg/kg. The class given is functional. As to conditions: po, route intragastric.
The next data set has as its target T1, Cyclooxygenase (Rattus norvegicus, UniProt P35355+Q63921).
T1 sequence (P35355 whole entry): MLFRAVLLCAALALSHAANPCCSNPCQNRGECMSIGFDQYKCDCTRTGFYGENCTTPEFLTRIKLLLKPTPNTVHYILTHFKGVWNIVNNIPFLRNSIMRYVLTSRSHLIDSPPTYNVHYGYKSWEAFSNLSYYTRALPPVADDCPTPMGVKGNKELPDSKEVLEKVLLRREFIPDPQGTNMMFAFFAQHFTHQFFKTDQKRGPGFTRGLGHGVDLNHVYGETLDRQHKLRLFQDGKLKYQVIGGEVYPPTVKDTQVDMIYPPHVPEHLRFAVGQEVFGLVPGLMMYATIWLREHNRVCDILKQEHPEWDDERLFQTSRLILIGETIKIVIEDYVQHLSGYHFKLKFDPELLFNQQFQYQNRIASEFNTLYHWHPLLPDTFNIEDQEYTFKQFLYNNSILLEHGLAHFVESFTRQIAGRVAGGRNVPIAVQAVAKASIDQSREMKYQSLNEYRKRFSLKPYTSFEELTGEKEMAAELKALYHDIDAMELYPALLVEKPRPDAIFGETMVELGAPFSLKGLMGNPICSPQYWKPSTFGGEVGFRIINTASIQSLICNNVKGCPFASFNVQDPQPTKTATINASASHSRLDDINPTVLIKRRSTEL
T1 sequence (Q63921 whole entry): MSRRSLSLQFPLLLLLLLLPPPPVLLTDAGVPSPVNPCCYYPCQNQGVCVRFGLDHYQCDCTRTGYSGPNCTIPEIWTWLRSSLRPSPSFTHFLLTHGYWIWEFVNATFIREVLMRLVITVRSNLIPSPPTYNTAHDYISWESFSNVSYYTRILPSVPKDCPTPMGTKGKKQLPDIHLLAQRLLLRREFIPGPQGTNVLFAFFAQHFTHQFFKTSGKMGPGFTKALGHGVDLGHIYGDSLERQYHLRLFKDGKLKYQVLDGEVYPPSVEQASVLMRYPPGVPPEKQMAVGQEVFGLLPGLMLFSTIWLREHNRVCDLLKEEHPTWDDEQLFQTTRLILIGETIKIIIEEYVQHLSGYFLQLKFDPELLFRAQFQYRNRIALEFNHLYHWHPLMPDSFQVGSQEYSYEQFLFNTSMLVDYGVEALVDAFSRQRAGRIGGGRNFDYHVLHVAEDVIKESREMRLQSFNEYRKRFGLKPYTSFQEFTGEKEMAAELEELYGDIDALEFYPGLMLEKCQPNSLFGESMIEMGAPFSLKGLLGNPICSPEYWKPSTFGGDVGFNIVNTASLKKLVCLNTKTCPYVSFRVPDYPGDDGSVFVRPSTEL
Description: Concentration that produces 50% inhibition of A-23187-stimulated radiolabeled 5-HETE and TXB2 synthesis by Prostaglandin G/H synthase. The class given is protein assay.

Data set [6] concerns Rattus norvegicus. Description: Antiinflammatory effect was studied in a rat carrageenan paw edema (CE) assay at 50 mg/kg. The class given is functional.
Data set [7] concerns Cavia porcellus. The data set can be described thus: In vitro inhibition of LTD4-induced bronchoconstriction into isolated guinea pig trachea by injecting intragastrically. The class given is functional. The note with it: po.
For data set [8], the target named is T2, Polyunsaturated fatty acid 5-lipoxygenase (Rattus norvegicus, UniProt P12527).
T2 sequence (P12527 whole entry): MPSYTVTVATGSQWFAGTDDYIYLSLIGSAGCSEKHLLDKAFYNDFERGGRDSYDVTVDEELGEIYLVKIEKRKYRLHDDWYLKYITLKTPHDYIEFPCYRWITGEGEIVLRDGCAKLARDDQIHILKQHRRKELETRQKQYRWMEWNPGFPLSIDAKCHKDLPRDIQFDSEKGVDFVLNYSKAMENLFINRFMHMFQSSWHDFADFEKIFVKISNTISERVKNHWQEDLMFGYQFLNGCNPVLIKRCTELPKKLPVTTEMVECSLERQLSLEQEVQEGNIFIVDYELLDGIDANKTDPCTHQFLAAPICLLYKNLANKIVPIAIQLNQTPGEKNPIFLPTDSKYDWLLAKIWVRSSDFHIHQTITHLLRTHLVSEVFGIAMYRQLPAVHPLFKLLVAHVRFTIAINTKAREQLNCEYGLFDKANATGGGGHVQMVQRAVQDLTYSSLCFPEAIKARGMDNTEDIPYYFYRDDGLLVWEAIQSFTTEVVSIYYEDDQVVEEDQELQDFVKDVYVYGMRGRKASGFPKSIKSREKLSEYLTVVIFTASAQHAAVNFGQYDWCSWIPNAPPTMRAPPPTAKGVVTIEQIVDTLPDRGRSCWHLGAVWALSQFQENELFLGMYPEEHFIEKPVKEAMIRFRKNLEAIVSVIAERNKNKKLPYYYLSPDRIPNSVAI
Description: Concentration that produces 50% inhibition of A-23187-stimulated radiolabeled 5-HETE and TXB2 synthesis by PMN 5-lipoxygenase.

Data set [9] is filed under the species Cavia porcellus. The data set can be described thus: Dose of antagonist that produces 50% inhibition of ovalbumin-induced bronchoconstriction. The class given is functional.
In data set [10] the test system is Cavia porcellus. The data set can be described thus: Inhibition of ovalbumin-induced broncho constriction in Guinea pig after intraduodenal administration of a dose of 25 mg/kg. The class given is functional.
Data set [11] has as its system Cavia porcellus. Description: Tested for the inhibition of LTD4-induced bronchoconstriction in Guinea pig, compound injected intraduodenally, dose of 3 mg/kg. The class given is functional. The note with it: route intraduodenal.
Data set [12] has as its system Cavia porcellus. The data set can be described thus: Dissociation constant was determined in vitro after intraduodenal administration in isolated guinea pig trachea. Type of data set: ADME, organism-based. As to conditions: in vivo, other.
For data set [13], the system named is Cavia porcellus. The data set can be described thus: Tested for the inhibition of ovalbumin induced bronchoconstriction in Guinea pig, compound injected intragastrically at dose of 10 mg/kg. Type of data set: functional. As to conditions: po, route intragastric.
Data set [14] has as its system Cavia porcellus. The data set can be described thus: Tested for the inhibition of ovalbumin- induced bronchoconstriction in Guinea pig, compound injected intragastrically at dose of 25 mg/kg. The class given is functional. As to conditions: po, route intragastric.
Data set [15] relates to Cavia porcellus. The data set can be described thus: Tested for the inhibition of LTD4-induced bronchoconstriction in Guinea pig, compound injected intragastrically at dose of 3 mg/kg. The class given is functional. As to conditions: po, route intragastric.
In data set [16] the target is T2, Polyunsaturated fatty acid 5-lipoxygenase. The data set can be described thus: Concentration that produces 50% inhibition of A-23187-stimulated radiolabeled 5-HETE and TXB2 synthesis by PMN 5-lipoxygenase. Type of data set: functional.
In data set [17] the test system is Cavia porcellus. The data set can be described thus: In vitro inhibition of LTD4-induced bronchoconstriction into isolated guinea pig trachea by injecting intraduodenally. Type of data set: functional. As to conditions: intraduodenal.
For data set [18], the species on record is Cavia porcellus. The data set can be described thus: Dose of antagonist that produces 50% inhibition of ovalbumin-induced bronchoconstriction. Type of data set: functional.
Data set [19] relates to Cavia porcellus. Description: Tested for the inhibition of ovalbumin- induced bronchoconstriction in Guinea pig, injected intragastrically, dose of 10 mg/kg. Type of data set: functional. The note with it: po, route intragastric.
Data set [20] deals with Cavia porcellus. The data set can be described thus: Tested for the inhibition of LTD4-induced bronchoconstriction in Guinea pig, injected intraduodenally, dose is 3 mg/kg. The class given is functional. The note with it: route intraduodenal.
In data set [21] the test system is Rattus norvegicus. The data set can be described thus: Antiinflammatory effect was studied in a rat carrageenan paw edema (CE) assay at a dose of 50 mg/kg. Type of data set: functional.
The subject of data set [22] is Cavia porcellus. The data set can be described thus: Tested for the inhibition of ovalbumin- induced bronchoconstriction in Guinea pig, injected intragastrically, dose of 25 mg/kg. As to conditions: po, route intragastric. The class given is functional.
For data set [23], the system named is Cavia porcellus. Description: Inhibition of LTD4-induced broncho constriction in Guinea pig after intragastrical administration of a dose of 3 mg/kg. The class given is functional. The note with it: po, route intragastric.
Data set [24] deals with Cavia porcellus. The data set can be described thus: Tested for the inhibition of ovalbumin- induced bronchoconstriction in Guinea pig, injected intraduodenally, dose of 25 mg/kg. Type of data set: functional. The note with it: route intraduodenal.
The subject of data set [25] is Cavia porcellus. Description: In vitro inhibition of ovalbumin-induced bronchoconstriction in isolated guinea pig trachea by injecting intraduodenally. The class given is functional. The note with it: intraduodenal.
In data set [26] the test system is Cavia porcellus. Description: In vitro LTD4-induced bronchoconstriction in isolated guinea pig trachea by injecting intraduodenally. The note with it: intraduodenal. The class given is functional.
For data set [27], the system named is Cavia porcellus. Description: In vitro inhibition of LTD4-induced bronchoconstriction after intragastrical administration 120 min before agonist into isolated guinea pig trachea. As to conditions: po. The class given is functional.
Data set [28] relates to Cavia porcellus. Description: -log dissociation constant was determined In vitro in isolated guinea pig trachea after intraduodenal administration (before 10 min). The note with it: in vivo, other. The class given is ADME, organism-based.
In data set [29] the test system is Cavia porcellus. Description: In vitro inhibition of ovalbumin-induced bronchoconstriction after intragastrical administration 120 min before agonist into isolated guinea pig trachea. The class given is functional. The note with it: po.

SMILES strings stand for the structures.

In the case of `Cc1ccc(S(=O)(=O)NC(=O)c2cccc(OCc3ncc4ccccc4n3)c2)cc1`, the inhibition in vivo at 10 mg/kg with Cavia porcellus [1] amounted to 50%; in the data set on Cavia porcellus [2], 66%. In the data set with Cavia porcellus [3], this molecule showed an inhibition in vivo at 3 mg/kg of 60%. Also, the inhibition in vivo at 25 mg/kg turned out to be 85% in the data set on Cavia porcellus [4] and 99% in the data set with Cavia porcellus [5].
On to `Cc1ccc(S(=O)(=O)NC(=O)c2cccc(OCc3ccc4ccccc4n3)c2)cc1`, for which the IC50 against Cyclooxygenase stood at 13.4 µM; in [8] it was 6.2 µM. This molecule registered an inhibition in vivo at 50 mg/kg in the data set on Rattus norvegicus [6] below 69%. The ED50 was 0.4 mg/kg with Cavia porcellus [7] and 2.02 mg/kg in the data set listed under Cavia porcellus [9]. Further, the inhibition in vivo at 25 mg/kg in the data set with Cavia porcellus [10] was below 80%; in the data set on Cavia porcellus [5] it was 91%; in the data set with Cavia porcellus [14], below 57%. Moreover, the inhibition in vivo at 3 mg/kg with Cavia porcellus [11] worked out at 83%; with Cavia porcellus [15], 86%. In addition, in the data set on Cavia porcellus [12], the negative logarithm of the Kb (pKb) is reported as 7.78. The inhibition in vivo at 10 mg/kg with Cavia porcellus [13] is 4%.
For the molecule `c1cc(Cc2nnn[nH]2)cc(OCc2ccc3ccccc3n2)c1`, the IC50 in data set [16] turned out to be 3.9 µM. In addition, the 50% effective dose (ED50) came to 3 mg/kg in the data set with Cavia porcellus [17], 6.7 mg/kg in the data set filed under Cavia porcellus [18] and 3 mg/kg in the data set with Cavia porcellus [7]. This molecule showed an inhibition in vivo at 10 mg/kg with Cavia porcellus [19] of 49%. The values for the inhibition in vivo at 3 mg/kg in the data set with Cavia porcellus [20] and in the data set with Cavia porcellus [23] were 53% and 50%, respectively. For the same molecule, the values for the inhibition in vivo at 25 mg/kg with Cavia porcellus [4], in the data set with Cavia porcellus [5] and in the data set with Cavia porcellus [22] were below 94%, below 99% and below 31%, respectively. The molecule further came in with an inhibition in vivo at 50 mg/kg with Rattus norvegicus [21] of 30%.
For `CS(=O)(=O)NC(=O)c1cccc(OCc2ccc3ccccc3n2)c1`, the inhibition in vivo at 25 mg/kg in the data set with Cavia porcellus [24] is below 13%; with Cavia porcellus [4], 90%; in the data set with Cavia porcellus [5], below 66%. Also, the inhibition in vivo at 3 mg/kg with Cavia porcellus [23] is 20%.
Regarding `CCCc1c(OCCCCc2nnn[nH]2)ccc(C(C)=O)c1O` [TOMELUKAST], the ED50 in the data set with Cavia porcellus [25] stood at 19 mg/kg; in the data set with Cavia porcellus [26] it was 6 mg/kg; in the data set with Cavia porcellus [27], 32 mg/kg; in the data set with Cavia porcellus [29], 38 mg/kg. In addition, in the data set with Cavia porcellus [28], the pKb is reported as 6.55.
